Key:
LEE011/Ribociclib = compound: CN(C)C(=O)c1cc2cnc(Nc3ccc(N4CCNCC4)cn3)nc2n1C1CCCC1 [LEE011/Ribociclib]
Pictilisib/GDC0941 = compound: CS(=O)(=O)N1CCN(Cc2cc3nc(-c4cccc5[nH]ncc45)nc(N4CCOCC4)c3s2)CC1 [Pictilisib/GDC0941]
BSJ-01-175 = compound: CN(C)C/C=C/C(=O)Nc1ccc(O[C@@H]2CCC[C@@H](Nc3ncc(Cl)c(-c4c[nH]c5ccccc45)n3)C2)cc1 [BSJ-01-175]
Tivantinib/ARQ197 = compound: O=C1NC(=O)[C@@H](c2cn3c4c(cccc24)CCC3)[C@@H]1c1c[nH]c2ccccc12 [Tivantinib/ARQ197]
Ceritinib/LDK378 = compound: Cc1cc(Nc2ncc(Cl)c(Nc3ccccc3S(=O)(=O)C(C)C)n2)c(OC(C)C)cc1C1CCNCC1 [Ceritinib/LDK378]
[1] = compound: CNc1nc(-c2ccc3c(N)n[nH]c3c2)cc(N2C[C@@H](C(=O)NC3CCCCC3)CC[C@H]2C)n1
AZD7762 = compound: NC(=O)Nc1cc(-c2cccc(F)c2)sc1C(=O)N[C@H]1CCCNC1 [AZD7762]
ABT-737 = compound: CN(C)CC[C@H](CSc1ccccc1)Nc1ccc(S(=O)(=O)NC(=O)c2ccc(N3CCN(Cc4ccccc4-c4ccc(Cl)cc4)CC3)cc2)cc1[N+](=O)[O-] [ABT-737]
Volasertib/BI6727 = compound: CC[C@@H]1C(=O)N(C)c2cnc(Nc3ccc(C(=O)N[C@H]4CC[C@H](N5CCN(CC6CC6)CC5)CC4)cc3OC)nc2N1C(C)C [Volasertib/BI6727]
[2] = compound: CC(=O)c1c(C)c2cnc(Nc3ccc(N4CCNCC4)cn3)nc2n(C2CCCC2)c1=O
Buparlisib/NVP-BKM120 = compound: Nc1cc(C(F)(F)F)c(-c2cc(N3CCOCC3)nc(N3CCOCC3)n2)cn1 [Buparlisib/NVP-BKM120]
INK128/MLN0128 = compound: CC(C)n1nc(-c2ccc3oc(N)nc3c2)c2c(N)ncnc21 [INK128/MLN0128]
Cabozantinib = compound: COc1cc2nccc(Oc3ccc(NC(=O)C4(C(=O)Nc5ccc(F)cc5)CC4)cc3)c2cc1OC [Cabozantinib]
[3] = compound: CCc1cnn2c(NCc3ccc[n+]([O-])c3)cc(N3CCCC[C@H]3CCO)nc12
BSJ-03-123 = compound: CC(=O)c1c(C)c2cnc(Nc3ccc(N4CCN(CCOCCOCCOCCNC(=O)COc5cccc6c5C(=O)N(C5CCC(=O)NC5=O)C6=O)CC4)cn3)nc2n(C2CCCC2)c1=O [BSJ-03-123]
R0-3306 = compound: C1=CC2=C(C=CC(=C2)C=C3C(=O)NC(=NCC4=CC=CS4)S3)N=C1 [R0-3306]
Neratinib/HKI272 = compound: CCOc1cc2ncc(C#N)c(Nc3ccc(OCc4ccccn4)c(Cl)c3)c2cc1NC(=O)/C=C/CN(C)C [Neratinib/HKI272]
senexin b = compound: CN1CCN(C(=O)c2ccc3cc(CCNc4ncnc5ccc(C#N)cc45)ccc3c2)CC1 [senexin b]
Dasatinib = compound: Cc1nc(Nc2ncc(C(=O)Nc3c(C)cccc3Cl)s2)cc(N2CCN(CCO)CC2)n1 [Dasatinib]
Doxorubicin = compound: COc1cccc2c1C(=O)c1c(O)c3c(c(O)c1C2=O)C[C@@](O)(C(=O)CO)C[C@@H]3O[C@H]1C[C@H](N)[C@H](O)[C@H](C)O1 [Doxorubicin]
TGX221 = compound: CC1=CN2C(=O)C=C(N=C2C(=C1)C(C)NC3=CC=CC=C3)N4CCOCC4 [TGX221]
Luminespib/NVP-AUY922 = compound: CCNC(=O)c1noc(-c2cc(C(C)C)c(O)cc2O)c1-c1ccc(CN2CCOCC2)cc1 [Luminespib/NVP-AUY922]
Olaparib/AZD2281 = compound: O=C(c1cc(Cc2n[nH]c(=O)c3ccccc23)ccc1F)N1CCN(C(=O)C2CC2)CC1 [Olaparib/AZD2281]
Torin2 = compound: C1=CC(=CC(=C1)N2C(=O)C=CC3=CN=C4C=CC(=CC4=C32)C5=CN=C(C=C5)N)C(F)(F)F [Torin2]
Taselisib/GDC0032 = compound: Cc1nc(-c2cn3c(n2)-c2ccc(-c4cnn(C(C)(C)C(N)=O)c4)cc2OCC3)n(C(C)C)n1 [Taselisib/GDC0032]
[4] = compound: CCC1=CN=CN=C1N2CCN(CC2)CC3=NC4=C(N3)C=C(C=C4)C(F)(F)F
[5] = compound: Cc1nn(C)c(COc2ccc(N3CCN(S(=O)(=O)N(C)C)CC3)cc2)c1-c1cccc2c(CCCOc3cccc4ccccc34)c(C(=O)O)n(CCN3CCOCC3)c12
AZD2014 = compound: CNC(=O)c1cccc(-c2ccc3c(N4CCOC[C@@H]4C)nc(N4CCOC[C@@H]4C)nc3n2)c1 [AZD2014]
Flavopiridol = compound: CN1CC[C@H](c2c(O)cc(O)c3c(=O)cc(-c4ccccc4Cl)oc23)[C@H](O)C1 [Flavopiridol]
Paclitaxel = compound: CC(=O)O[C@H]1C(=O)[C@@]2(C)[C@H]([C@H](OC(=O)c3ccccc3)[C@]3(O)C[C@H](OC(=O)[C@H](O)[C@@H](NC(=O)c4ccccc4)c4ccccc4)C(C)=C1C3(C)C)[C@]1(OC(C)=O)CO[C@@H]1C[C@@H]2O [Paclitaxel]
Ipatasertib/GDC0068 = compound: CC(C)NC[C@@H](C(=O)N1CCN(c2ncnc3c2[C@H](C)C[C@H]3O)CC1)c1ccc(Cl)cc1 [Ipatasertib/GDC0068]
THZ-P1-2 = compound: CN(C)C/C=C/C(=O)NC1=CC=C(C=C1)C(=O)NC2=CC=CC(=C2)NC3=NC=NC(=C3)C4=CNC5=CC=CC=C54 [THZ-P1-2]
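Also: breast cancer and non-malignant breast epithelial cell lines, Deep Dye Drop or Dye Drop imaging, nine half-log doses, GR normalized to time-zero plates and DMSO-only controls.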

Cell Line	GR50, 72 h (LEE011/Ribociclib) [µM]	GR50, 72 h (Pictilisib/GDC0941) [µM]	GR50, 72 h (BSJ-01-175) [µM]	GR50, 72 h (Tivantinib/ARQ197) [µM]	GR50, 72 h (Ceritinib/LDK378) [µM]	GR50, 72 h [1] [µM]	GR50, 72 h (AZD7762) [µM]	GR50, 72 h (ABT-737) [µM]	GR50, 72 h (Volasertib/BI6727) [µM]	GR50, 72 h [2] [µM]	GR50, 72 h (Buparlisib/NVP-BKM120) [µM]	GR50, 72 h (INK128/MLN0128) [µM]	GR50, 72 h (Cabozantinib) [µM]	GR50, 72 h [3] [µM]	GR50, 72 h (BSJ-03-123) [µM]	GR50, 72 h (R0-3306) [µM]	GR50, 72 h (Neratinib/HKI272) [µM]	GR50, 72 h (senexin b) [µM]	GR50, 72 h (Dasatinib) [µM]	GR50, 72 h (Doxorubicin) [µM]	GR50, 72 h (TGX221) [µM]	GR50, 72 h (Luminespib/NVP-AUY922) [µM]	GR50, 72 h (Olaparib/AZD2281) [µM]	GR50, 72 h (Torin2) [µM]	GR50, 72 h (Taselisib/GDC0032) [µM]	GR50, 72 h [4] [µM]	GR50, 72 h [5] [µM]	GR50, 72 h (AZD2014) [µM]	GR50, 72 h (Flavopiridol) [µM]	GR50, 72 h (Paclitaxel) [µM]	GR50, 72 h (Ipatasertib/GDC0068) [µM]	GR50, 72 h (THZ-P1-2) [µM]
CAL851	> 10	0.647	0.0129	0.198	0.74	> 10	0.0421	> 10	0.00327	> 3.16	0.343	0.00883	5.34	0.00469	0.431	6.55	0.0339	> 10	0.105	0.00552	> 10	0.00652	5.05	0.00862	0.0604	> 10	> 10	0.00819	0.17	0.00273		
HCC1187	> 10	0.571	0.00928	0.0418	1.49	> 10	0.0508		0.0078	> 3.16	0.619	0.0661		0.00577	6.39		2.5	> 10	0.0343	0.00119		0.00363	3.46	0.00305	0.168	> 10	> 10		0.237	0.000215		
HCC1428		5.87		0.252	1.24		0.4	4	0.0187	0.073	0.692	0.00593	> 10	0.0171			1.43		> 10	0.00474	> 10	0.00286	0.553	0.0128	4.21	> 10	> 10			0.00862	> 10	
HCC1500		2.26		0.115	1.41		0.0356	0.00851	0.0116	> 3.16	0.211	0.000784	4.67	0.0138			0.785		0.00348	0.0163	> 10	0.00847	6.33	0.00186	1.88	1.66	> 10			0.00382	> 10	
HCC1954	> 10	0.944	0.102	0.167	2.33	> 10	0.127	9.94	0.00659	> 3.16	0.523	0.0142	> 10	0.0126	1.07	6.63	0.0672		1.86	0.00718	> 10	0.0103	> 10	0.0097	0.00701	> 10	> 10	0.0484	0.128	0.0025	1.43	5.9
MDAMB157		2.05		0.777	0.484		0.0154	6.41	0.00692	> 3.16	1.28	0.0318	2.78	0.0177			0.796		0.0605	0.00323	> 10	0.00418	5.39	0.0344	1.36	3.78	> 10			0.00205	> 10	
MDAMB175VII		0.345	0.00586	0.267	2.56	0.0785	0.0769	4.58	0.0114	0.00212	0.102	0.00349	7.74	0.0118	0.301		0.00127	0.387	0.0162	0.00311	> 10	0.00398	9.32	0.0022	0.00272	1.34	> 10	< 0.001	0.0523	0.00295	0.22	3.1
MDAMB330	< 0.001	0.293	0.00635	0.661	1.13	0.279	0.0449	2.07	0.0032	0.0198	0.511	0.00601	> 10	0.0203	0.297	7.54	0.00221		> 10	0.00368	> 10	0.00239	9.31	0.00492	0.00814	> 10	> 10	< 0.001	0.232	0.00423	0.38	
MDAMB361	< 0.001	0.0792	0.00163	0.342	0.266	0.0407	0.00768	> 10	0.00352	0.0196	0.218	0.00362	> 10	0.0118	0.297	5.8	0.152	1.62	0.268	0.0123	> 10	0.00714	4.83	0.00507	0.00177	7.23	> 10	< 0.001	0.0887	0.00311	0.314	
MDAMB453	0.0388	0.455	0.00336	0.201	0.37	2.12	0.0116	5.97	0.00726	0.0428	0.694	0.00996	9.71	0.0114	1.8	5.95	0.0361	3.93	> 10	0.00587	> 10	0.0033	1.67	0.0086	0.00346	4.29	> 10	0.00364	0.134	0.00247	0.542	
PDX1328	0.349	0.878	0.00722	0.239	0.629	> 10	0.0284	1.56	0.00437	0.168	0.528	0.00569	6.29	0.0148			0.264	> 10	0.0279	0.024	> 10	0.00288	> 10	0.00494	0.0544	> 10	> 10		0.181	0.00287	> 10	> 10
SUM185PE	> 10	0.127	0.103	0.784	0.983	> 10	0.0985	0.927	0.0238	> 3.16	0.659	0.00558	1.71	0.0261	> 10	> 10	0.537		0.0196	> 3.16	> 10	0.00341	> 10	0.0124	0.00177	3.03	> 10	0.00637	0.149	0.00463	6.34	5.83
SUM190PT	0.0246	3.1	0.00573	0.0433	0.528	2.22	0.0612	0.362	0.0086	0.0436	1.04	0.0134	6.1	0.0215	0.0593	4.76	1.88		0.212	0.025	> 10	0.00558	> 10	0.00524	0.962	9.17	6.86	0.00932	0.0802	0.000878	> 10	0.303
UACC812	0.0124	0.106	0.332	0.175	3.48	0.884	0.00748	3.73	0.00975	0.0179	0.0515	0.0021	5.86	0.0303	0.836	5.09	0.00313		0.00102	0.00203	0.0345	0.00518	8.69	0.00356	0.0622	2.01	> 10	< 0.001	0.0813	0.00042	1.02	3.78
UACC893	0.0051	0.682	0.0165	0.297	> 10	4.83	0.299	9.97	0.00357	0.0209	0.271	0.00694	> 10	0.017	1.46	9.24	0.00274	> 10	> 10	0.0106	> 10	0.00468	> 10	0.00854	0.00346	6.76	> 10	< 0.001	0.117	0.00216	0.223	

From the supplement of paper PMC9663587
